Where only a bound is given, the exact number is not on record here.

Data on 24 compounds can be found in patent US20110212968A1, “PHENETHYLAMIDE DERIVATIVES AND THEIR HETEROCYCLIC ANALOGUES” (priority 2008, published 2011).

One experiment deals with T1, human orexin-1 receptor (Homo sapiens, UniProt O43613).
T1 construct: expressed in transfected cells; host or cells: CHO (Chinese hamster ovary) cells, kept under G418 selection
T1 sequence (O43613 1-425): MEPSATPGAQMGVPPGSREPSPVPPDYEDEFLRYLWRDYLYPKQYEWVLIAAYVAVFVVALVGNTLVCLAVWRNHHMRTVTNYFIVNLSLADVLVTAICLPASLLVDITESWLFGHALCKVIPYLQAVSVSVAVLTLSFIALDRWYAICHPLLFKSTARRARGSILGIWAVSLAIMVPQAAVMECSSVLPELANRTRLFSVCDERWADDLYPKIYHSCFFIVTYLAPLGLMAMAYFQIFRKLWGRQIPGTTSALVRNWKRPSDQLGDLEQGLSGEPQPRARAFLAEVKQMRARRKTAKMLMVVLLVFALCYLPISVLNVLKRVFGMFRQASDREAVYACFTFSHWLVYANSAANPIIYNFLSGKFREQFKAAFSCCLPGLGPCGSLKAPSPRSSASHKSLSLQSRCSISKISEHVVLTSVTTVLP
Briefly: Intracellular calcium measurement (FLIPR Tetra), orexin receptor antagonistic activity, OX1. In kind it is cell-based. Particulars: CHO cells expressing human orexin-1 receptor, 3 nM orexin-A, conditions B, normalized (*) using IC50 of on-plate reference compound. Put shortly: (§1)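 Recombinant CHO cells expressing human OX1 or OX2, loaded with fluo-4 AM plus probenecid, were preincubated with antagonist 10 min, then stimulated with 3 nM human orexin-A. Peak fluorescence was compared with vehicle; IC50 derived, sometimes normalized to an on-plate reference compound; two pipetting/cell-splitting conditions were used.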

The target in another experiment is T2, human orexin-2 receptor (Homo sapiens, UniProt O43614).
T2 construct: expressed in transfected cells; host or cells: CHO (Chinese hamster ovary) cells, kept under G418 selection
T2 sequence (O43614 1-444): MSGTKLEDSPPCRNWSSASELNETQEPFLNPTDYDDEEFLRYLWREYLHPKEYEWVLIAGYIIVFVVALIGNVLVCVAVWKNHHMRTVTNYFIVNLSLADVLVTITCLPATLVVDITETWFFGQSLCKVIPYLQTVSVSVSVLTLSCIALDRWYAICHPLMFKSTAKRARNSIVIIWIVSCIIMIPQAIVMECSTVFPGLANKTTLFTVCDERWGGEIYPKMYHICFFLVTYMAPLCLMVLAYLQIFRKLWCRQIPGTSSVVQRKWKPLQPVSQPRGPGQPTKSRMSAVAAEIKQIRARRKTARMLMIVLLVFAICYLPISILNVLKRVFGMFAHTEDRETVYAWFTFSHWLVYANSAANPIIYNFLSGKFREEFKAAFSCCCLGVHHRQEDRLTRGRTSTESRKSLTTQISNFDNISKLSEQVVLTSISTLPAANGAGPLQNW
Briefly: Intracellular calcium measurement (FLIPR Tetra), orexin receptor antagonistic activity, OX2. The format is cell-based. Particulars: CHO cells expressing human orexin-2 receptor, 3 nM orexin-A, conditions B, normalized (*) using IC50 of on-plate reference compound. The gist of the method: as §1
On the technique in general: A change in cytosolic calcium serves as a functional read-out for many receptors and channels.

Regarding `COc1ccc(-c2nccnc2C(=O)N(CCc2c[nH]c3c(C)cccc23)CC2CC2)cc1` [Example 436, 3-(4-Methoxy-phenyl)-pyrazine-2-carboxylic acid cyclopropylmethyl-[2-(7-methyl-1H-indol-3-yl)-ethyl]-amide], the values for the half-inhibitory concentration (IC50) at human orexin-1 receptor and at human orexin-2 receptor were 24 nM and 2 nM, respectively.
With `COc1ccc(-c2nccnc2C(=O)N(CCc2c[nH]c3c(C)cccc23)CC2CC2)cn1` [Example 437, 3-(6-Methoxy-pyridin-3-yl)-pyrazine-2-carboxylic acid cyclopropylmethyl-[2-(7-methyl-1H-indol-3-yl)-ethyl]-amide], the half-inhibitory concentration (IC50) at human orexin-1 receptor turned out to be 43 nM; on human orexin-2 receptor it was 3 nM.
As for `Cc1cccc2c(CCN(CC3CC3)C(=O)c3nccnc3-c3cncnc3)c[nH]c12` [Example 438, 3-Pyrimidin-5-yl-pyrazine-2-carboxylic acid cyclopropylmethyl-[2-(7-methyl-1H-indol-3-yl)-ethyl]-amide], the concentration for half-maximal inhibition (IC50) on human orexin-1 receptor was > 11100 nM; at human orexin-2 receptor, 50 nM.
On the same counts, the results for `COc1ncc(-c2nccnc2C(=O)N(CCc2c[nH]c3c(C)cccc23)CC2CC2)cn1` [Example 439, 3-(2-Methoxy-pyrimidin-5-yl)-pyrazine-2-carboxylic acid cyclopropylmethyl-[2-(7-methyl-1H-indol-3-yl)-ethyl]-amide] are 461 nM and 28 nM.
On the same counts, the results for `COc1cccc2c(CCN(CC3CC3)C(=O)c3nccnc3-c3cccc(C(F)(F)F)c3)c[nH]c12` [Example 444, 3-(3-Trifluoromethyl-phenyl)-pyrazine-2-carboxylic acid cyclopropylmethyl-[2-(7-methoxy-1H-indol-3-yl)-ethyl]-amide] are 6000 nM and 214 nM.
As for `O=C(c1cncnc1-c1ccccc1)N(CCc1c[nH]c2cc(F)c(Cl)cc12)CC1CC1` [Example 471, 4-Phenyl-pyrimidine-5-carboxylic acid [2-(5-chloro-6-fluoro-1H-indol-3-yl)-ethyl]-cyclopropylmethyl-amide], the half-maximal inhibitory concentration (IC50) on human orexin-1 receptor came to 97 nM; on human orexin-2 receptor it was 25 nM.
Regarding `CN(C)c1nc(C(=O)N(CCc2c[nH]c3cc(F)c(Cl)cc23)CC2CC2)c(-c2ccccc2)s1` [Example 472, 2-Dimethylamino-5-phenyl-thiazole-4-carboxylic acid [2-(5-chloro-6-fluoro-1H-indol-3-yl)-ethyl]-cyclopropylmethyl-amide], the figures for the half-maximal inhibitory concentration (IC50) on human orexin-1 receptor and at human orexin-2 receptor were 28 nM and 211 nM, respectively.
Consider `COc1ccc2[nH]cc(CCN(CC3CC3)C(=O)c3cnc(C)nc3-c3ccccc3)c2c1C` [Example 479, 2-Methyl-4-phenyl-pyrimidine-5-carboxylic acid cyclopropylmethyl-[2-(5-methoxy-4-methyl-1H-indol-3-yl)-ethyl]-amide], for which the half-inhibitory concentration (IC50) at human orexin-1 receptor was 1380 nM; on human orexin-2 receptor, 48 nM.
Consider `O=C(c1cncnc1-c1ccccc1)N(CCc1c[nH]c2ccccc12)CC1CC1` [Example 497, 4-Phenyl-pyrimidine-5-carboxylic acid cyclopropylmethyl-[2-(1H-indol-3-yl)-ethyl]-amide], for which the IC50 at human orexin-1 receptor was 227 nM; at human orexin-2 receptor, 10 nM.
For `CCN(C)c1nc(C(=O)N(CCc2c[nH]c3ccccc23)CC2CC2)c(-c2ccccc2F)s1` [Example 500, 2-(Ethyl-methyl-amino)-5-(2-fluoro-phenyl)-thiazole-4-carboxylic acid cyclopropylmethyl-[2-(1H-indol-3-yl)-ethyl]-amide], the IC50 is 257 nM at human orexin-1 receptor and 190 nM on human orexin-2 receptor.
For the compound `CCC(=O)Nc1ccc(-c2sc(C)nc2C(=O)N(CCc2c[nH]c3ccccc23)CC2CC2)cc1` [Example 501, 2-Methyl-5-(4-propionylamino-phenyl)-thiazole-4-carboxylic acid cyclopropylmethyl-[2-(1H-indol-3-yl)-ethyl]-amide], the half-maximal inhibitory concentration (IC50) at human orexin-1 receptor was determined as 246 nM; at human orexin-2 receptor, 330 nM.
On the same counts, the results for `Cc1ccc(-c2ncncc2C(=O)N(CCc2c[nH]c3ccccc23)CC2CC2)cc1C` [Example 504, 4-(3,4-Dimethyl-phenyl)-pyrimidine-5-carboxylic acid cyclopropylmethyl-[2-(1H-indol-3-yl)-ethyl]-amide] are 31 nM and 17 nM.
Take `COc1cccc(-c2ncncc2C(=O)N(CCc2c[nH]c3ccccc23)CC2CC2)c1` [Example 506, 4-(3-Methoxy-phenyl)-pyrimidine-5-carboxylic acid cyclopropylmethyl-[2-(1H-indol-3-yl)-ethyl]-amide]: the IC50 on human orexin-1 receptor was 259 nM; at human orexin-2 receptor it was 15 nM.
For the compound `O=C(c1cncnc1-c1cccc(F)c1)N(CCc1c[nH]c2ccccc12)CC1CC1` [Example 510, 4-(3-Fluoro-phenyl)-pyrimidine-5-carboxylic acid cyclopropylmethyl-[2-(1H-indol-3-yl)-ethyl]-amide], the IC50 amounted to 352 nM on human orexin-1 receptor and 25 nM at human orexin-2 receptor.
Take `O=C(c1cncnc1-c1ccc(Br)c(Cl)c1)N(CCc1c[nH]c2ccccc12)CC1CC1` [Example 513, 4-(4-Bromo-3-chloro-phenyl)-pyrimidine-5-carboxylic acid cyclopropylmethyl-[2-(1H-indol-3-yl)-ethyl]-amide]: the 50% inhibitory concentration (IC50) was 36 nM at human orexin-1 receptor and 17 nM at human orexin-2 receptor.
Consider `CCN(CCc1c[nH]c2ccccc12)C(=O)c1nccnc1-c1cccc(OC)c1` [Example 533, 3-(3-Methoxy-phenyl)-pyrazine-2-carboxylic acid ethyl-[2-(1H-indol-3-yl)-ethyl]-amide], for which the IC50 stood at 2370 nM at human orexin-1 receptor and 258 nM at human orexin-2 receptor.
On the same counts, the results for `CCN(CCc1c[nH]c2ccccc12)C(=O)c1cncnc1-c1ccc(Br)c(Cl)c1` [Example 536, 4-(4-Bromo-3-chloro-phenyl)-pyrimidine-5-carboxylic acid ethyl-[2-(1H-indol-3-yl)-ethyl]-amide] are 262 nM and 9 nM.
As for `CCN(CCc1c[nH]c2ccccc12)C(=O)c1cncnc1-c1cccc(OC)c1` [Example 541, 4-(3-Methoxy-phenyl)-pyrimidine-5-carboxylic acid ethyl-[2-(1H-indol-3-yl)-ethyl]-amide], the results for the IC50 on human orexin-1 receptor and on human orexin-2 receptor were 2930 nM and 151 nM, respectively.
In the case of `CCN(CCc1c[nH]c2ccccc12)C(=O)c1cncnc1-c1ccc(Cl)c(Cl)c1` [Example 544, 4-(3,4-Dichloro-phenyl)-pyrimidine-5-carboxylic acid ethyl-[2-(1H-indol-3-yl)-ethyl]-amide], the IC50 is 177 nM on human orexin-1 receptor and 15 nM on human orexin-2 receptor.
With `Cc1cccc(-c2ncncc2C(=O)N(CCc2c[nH]c3ccccc23)CC(F)(F)F)c1` [Example 549, 4-m-Tolyl-pyrimidine-5-carboxylic acid [2-(1H-indol-3-yl)-ethyl]-(2,2,2-trifluoro-ethyl)-amide], the half-maximal inhibitory concentration (IC50) on human orexin-1 receptor stood at 1160 nM; at human orexin-2 receptor, 130 nM.
For `Cc1cc(F)cc(-c2nccnc2C(=O)N(CCc2c[nH]c3ccccc23)CC(F)(F)F)c1` [Example 556, 3-(3-Fluoro-5-methyl-phenyl)-pyrazine-2-carboxylic acid [2-(1H-indol-3-yl)-ethyl]-(2,2,2-trifluoro-ethyl)-amide], the values for the IC50 at human orexin-1 receptor and on human orexin-2 receptor were 425 nM and 212 nM, respectively.
Regarding `COCCOc1cccc(-c2sc(C)nc2C(=O)N(CCc2c[nH]c3ccccc23)CC(=O)OC)c1` [Example 587, ([2-(1H-Indol-3-yl)-ethyl]-{5-[3-(2-methoxy-ethoxy)-phenyl]-2-methyl-thiazole-4-carbonyl}-amino)-acetic acid methyl ester], the values for the 50% inhibitory concentration (IC50) at human orexin-1 receptor and at human orexin-2 receptor were 404 nM and 38 nM, respectively.
On the same counts, the results for `COC(=O)CN(CCc1c[nH]c2ccccc12)C(=O)c1nc(C)sc1-c1cccc(Br)c1` [Example 590, {[5-(3-Bromo-phenyl)-2-methyl-thiazole-4-carbonyl]-[2-(1H-indol-3-yl)-ethyl]-amino}-acetic acid methyl ester] are 468 nM and 10 nM.
Take `COC(=O)CN(CCc1c[nH]c2ccc(F)cc12)C(=O)c1cnc(C)nc1-c1ccc(Cl)c(Cl)c1` [Example 604, {[4-(3,4-Dichloro-phenyl)-2-methyl-pyrimidine-5-carbonyl]-[2-(5-fluoro-1H-indol-3-yl)-ethyl]-amino}-acetic acid methyl ester]: the half-maximal inhibitory concentration (IC50) at human orexin-1 receptor came to 421 nM; on human orexin-2 receptor, 196 nM.

For orientation: IC50 means the concentration at which inhibition is half-maximal.
